Counter-ions that a name gives are not always drawn.
Legend:
[1] = target: T1, human PRMT6 (Homo sapiens, UniProt Q96LA8); test: PRMT6 Biochemical Assay (3H-SAM Flashplate, peptide substrate); settings: Biochemical IC50 PRMT6, single experiment or average of multiple experiments
T1 construct: Flag-PRMT6-His; made in house; host or cells: HEK 293F cells (BacMam baculovirus)
Procedure, shortened: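 Flag-PRMT6-His, expressed in mammalian cells from a BacMam vector, was preincubated with compound for 30 min at room temperature in Bicine pH 7.6 buffer with TCEP, BSG and Tween 20. Reactions were started with ³H-SAM and a biotinylated histone H4 36-50 peptide, then stopped with cold SAM (400 uM final). Labeled peptide was captured on streptavidin Flashplates, counted, and fitted to a 3- or 4-parameter curve.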

[2] = target: T2, human PRMT1 (Homo sapiens, UniProt Q99873); test: PRMT1 Biochemical Assay (3H-SAM Flashplate, peptide substrate); settings: single experiment or average of multiple experiments
T2 construct: GST-tagged PRMT1; made in house; host or cells: High Five insect cells (baculovirus)
Procedure, shortened: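 GST-tagged PRMT1 from baculovirus-infected cells, preincubated with compounds 30 min at room temperature in 20 mM Bicine pH 7.6, 1 mM TCEP, 0.005% BSG, 0.002% Tween 20. Reaction started with ³H-SAM plus biotinylated peptide, stopped with 300 µM cold SAM.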

T1 sequence (Q96LA8 with tags, fused parts or gaps): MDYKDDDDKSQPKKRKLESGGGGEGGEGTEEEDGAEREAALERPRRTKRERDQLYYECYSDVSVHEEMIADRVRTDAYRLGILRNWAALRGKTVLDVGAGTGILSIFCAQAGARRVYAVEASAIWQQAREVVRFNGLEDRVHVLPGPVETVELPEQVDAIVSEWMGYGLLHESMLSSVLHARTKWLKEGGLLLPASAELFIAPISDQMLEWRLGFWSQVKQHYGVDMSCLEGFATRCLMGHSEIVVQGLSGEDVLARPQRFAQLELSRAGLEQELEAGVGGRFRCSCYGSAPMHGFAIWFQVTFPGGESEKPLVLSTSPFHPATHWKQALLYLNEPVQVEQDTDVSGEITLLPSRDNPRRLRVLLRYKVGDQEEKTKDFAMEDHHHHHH
T2 sequence (Q99873 with tags, fused parts or gaps): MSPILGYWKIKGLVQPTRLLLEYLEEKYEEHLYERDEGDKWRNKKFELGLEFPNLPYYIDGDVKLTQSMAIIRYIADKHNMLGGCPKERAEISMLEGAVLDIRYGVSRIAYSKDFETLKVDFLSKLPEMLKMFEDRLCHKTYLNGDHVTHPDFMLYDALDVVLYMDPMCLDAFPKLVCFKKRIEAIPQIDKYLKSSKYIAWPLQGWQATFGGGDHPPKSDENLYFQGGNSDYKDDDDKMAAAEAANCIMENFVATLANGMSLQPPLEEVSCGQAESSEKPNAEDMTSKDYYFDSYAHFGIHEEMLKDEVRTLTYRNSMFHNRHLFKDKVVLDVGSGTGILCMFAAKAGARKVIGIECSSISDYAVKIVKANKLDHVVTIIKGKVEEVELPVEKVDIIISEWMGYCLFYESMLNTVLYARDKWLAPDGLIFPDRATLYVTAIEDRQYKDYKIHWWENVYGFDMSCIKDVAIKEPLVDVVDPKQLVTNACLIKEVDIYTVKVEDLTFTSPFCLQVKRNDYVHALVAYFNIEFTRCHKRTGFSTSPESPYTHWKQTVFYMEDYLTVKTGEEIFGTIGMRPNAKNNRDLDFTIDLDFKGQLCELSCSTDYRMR

| SMILES | IC50 [1] | IC50 [2] |
| --- | --- | --- |
| CNCCN(C)Cc1cnn(C2CCCC2)c1-c1ccc(OC(C)C)cc1 [Compound 255] | 75.1 nM | 16.8 nM |
| C=C(C)C(=O)Nc1cccc(-c2[nH]ncc2CN(C)CCNC)c1 [Compound 257] | 213 nM | 135 nM |
| C=CC(=O)Nc1cccc(-c2[nH]ncc2CN(C)CCNC)c1 [Compound 258] | 173 nM | 43.9 nM |
| CN(CCN)Cc1c[nH]nc1-c1ccc(Oc2ccccc2F)cc1 [Compound 259] | 0.8 nM | 1.32 nM |
| CNCCN(C)Cc1n[nH]cc1-c1ccc(Oc2cccc(C#N)c2)cc1 [Compound 267] | 1.56 nM | 3.47 nM |
| CNCCN(C)Cc1n[nH]cc1-c1ccc(Oc2cccc(C(=O)NC)c2)cc1 [Compound 268] | 2 nM | 4.58 nM |
| CNCCN(C)Cc1n[nH]cc1-c1cc(CC(C)C)cc(CC(C)C)c1 [Compound 271] | 864 nM | 52.4 nM |
| CNCCN(C)Cc1n[nH]cc1-c1cc(Cl)c(OC(C)C)c(Cl)c1 [Compound 273] | 31.6 nM | 8.56 nM |
| CC(C)Cc1cc(-c2n[nH]cc2CN(C)CCN)ccc1F [Compound 280] | 10.2 nM | 4.3 nM |
| CNCCN(C)Cc1c[nH]nc1-c1cc(CC(C)C)cc(CC(C)C)c1 [Compound 281] | 241 nM | 11.2 nM |
| CNCCN(C)Cc1c[nH]nc1-c1cc(Cl)c(OCC2CC2)c(Cl)c1 [Compound 282] | 4.75 nM | 2.21 nM |

Further lines, results first:

| IC50 [1] | IC50 [2] | SMILES |
| --- | --- | --- |
| 748 nM | 113 nM | CNCCN(C)Cc1cn(CCOC)nc1-c1ccc(OC(C)C)cc1 [Compound 253, N1-((3-(4-isopropoxyphenyl)-1-(2-methoxyethyl)-1H-pyrazol-4-yl)methyl)-N1,N2-dimethylethane-1,2-diamine hydrochloride] |
| 201 nM | 29.3 nM | CNCCN(C)Cc1cn(C2CCC2)nc1-c1ccc(OC(C)C)cc1 [Compound 254, N1-((1-cyclobutyl-3-(4-isopropoxyphenyl)-1H-pyrazol-4-yl)methyl)-N1,N2-dimethylethane-1,2-diamine hydrochloride] |
| 921 nM | 132 nM | CNCCN(C)Cc1cn(C2CCCCC2)nc1-c1ccc(OC(C)C)cc1 [Compound 256] |
| 243 nM | 23.9 nM | CNCCN(C)Cc1c[nH]nc1-c1cc(OC(C)C)cc(C(C)C)c1 [Compound 260] |
| 2.44 nM | 2.94 nM | CNCCN(C)Cc1c[nH]nc1-c1ccc(Oc2cccc(C#N)c2)cc1 [Compound 261] |
| 1.46 nM | 5.63 nM | CNCCN(C)Cc1c[nH]nc1-c1ccc(Oc2cccc(C(C)C)c2)cc1 [Compound 262] |
| 15.7 nM | 5.67 nM | CNCCN(C)Cc1c[nH]nc1-c1cc(Cl)c(OC(C)C)c(Cl)c1 [Compound 265, N^1-((3-(3,5-dichloro-4-isopropoxyphenyl)-1H-pyrazol-4-yl)methyl)-N^1,N^2-dimethylethane-1,2-diamine] |
| 33 nM | 176 nM | CNCCN(C)Cc1nn(C)cc1-c1ccc(OCCCOC)cc1 [Compound 266] |
| 1.24 nM | 2.79 nM | CNCCN(C)Cc1n[nH]cc1-c1ccc(Oc2cccc(F)c2)cc1 [Compound 270] |
| > 1000 nM | 156 nM | CNCCN(C)Cc1n[nH]cc1-c1cc(OC(C)C)cc(C(C)C)c1 [Compound 272] |
| 7.57 nM | 19.3 nM | CNCCN(C)Cc1c[nH]nc1-c1ccc(Oc2ccccc2C(=O)NC)cc1 [Compound 274] |
| 20.9 nM | 8.63 nM | CNCCN(C)Cc1n[nH]c(C)c1-c1ccc(OC(C)C)cc1 [Compound 275] |
| > 1000 nM | > 1000 nM | CNCCN(C)Cc1c(-c2ccc(OCCCOC)cc2)cnn1C [Compound 276] |
| 1.66 nM | 20.2 nM | CNCCN(C)Cc1n[nH]cc1-c1ccc(Oc2cccc(C(C)C)c2)cc1 [Compound 277] |
| 1.87 nM | 3.46 nM | CNCCN(C)Cc1n[nH]cc1-c1ccc(Oc2ccccc2F)cc1 [Compound 279, N^1-((4-(4-(2-fluorophenoxy)phenyl)-1H-pyrazol-3-yl)methyl)-N^1,N^2-dimethylethane-1,2-diamine] |
